{"source": "patent US20110070186A1", "about": "(priority 2009, published 2011)", "test_system": "DU-145 cells", "assay_type": "cell-based, human"}
{"smiles": "C=C1[C@@H](C)[C@H]2[C@H](Cc3ccccc3)NC(=O)[C@]23[C@H](OC(C)=O)/C=C/[C@@](C)(O)C(=O)[C@@H](C)C/C=C/[C@H]3[C@@H]1O", "note": "[Cytochalasin-D]", "values": [{"measurement": "Effect on cell migration (in words)", "value": "did not migrate"}, {"measurement": "Relative Wound Density at 24 Hours, Mean", "value": "3.3 ± 0.2"}, {"measurement": "Relative Wound Density at 24 Hours, Percent Relative to Media", "value": 4, "unit": "%"}]}
